Consider two compounds from US5354758A, “Benzomorphans useful as NMDA receptor antagonists” (priority 1992, dated 1994).

As usually defined, the Kd is the equilibrium constant for the complex coming apart. A low value points to tighter binding.

One data set deals with mice. In words: Lethality of NMDA in mice. In kind it is in vivo, Swiss-Webster mouse. Particulars: NMDA at 200 mg/kg. How it is done: According to the method described by Ferkany et al. (1988), the test compounds were administered ip to four male Swiss-Webster mice (26-34 g) each, following 30 minutes later, 200 mg/kg of NMDA was administered to the mice each. […] Those compounds that protected three or more of the mice at any of the doses were evaluated further by determining the ED50 values using three or more doses with the eight mice per dose. The ED50 was estimated by the method of Litchfield and Wilcoxin (1949). Water-soluble compounds were dissolved in distilled water and administered in a volume of 10 ml/kg. Water-insoluble compounds were suspended in an aqueous solution of 0.5% methyl cellulose and administered in a volume of 20 ml/kg.

The target in data set [1] is T1, σ-site of opioid receptor (Cavia porcellus, UniProt Q60492).
T1 construct: Hartley guinea pigs were decapitated, and the brains were removed and homogenized; from tissue; host or cells: Hartley guinea pig brain homogenate (washed membranes)
The experiment in a line: In vitro binding, inhibition of [^3 H]PPP binding to guinea pig brain homogenate. The arrangement: species or system Hartley guinea pig. How it is done:
As described below, the compounds of the invention were tested for their ability to inhibit binding of radiolabeled versions of these known ligands.
Hartley guinea pigs were decapitated, and the brains were removed and homogenized in 20 volumes of 50 mM Tris-HCl using a Polytron homogenizer. The homogenate was centrifuged at 27,000×G for 15 minutes, and the pellet was resuspended in 50 mM Tris-HCl. The centrifugation procedure was repeated twice. The pellet was diluted to approximately 8 mg wet tissue/assay. Various concentrations of the test compounds (100 μL) and [^3 H]PPP (100 μL, final concentration 0.6 nM) were incubated with 1.8 mL of the tissue homogenate at 25° C. for 1 hour. Unlabeled PPP (final concentration 10 μM) was added to some tubes to determine nonspecific binding. The reaction was stopped by filtration through GF/B filters using a Brandel Cell Harvester. After washing twice with […] of ice cold Tris-HCl, the filters were suspended in 5 mL of scintillation fluid, and the radioactivity was counted after standing at room temperature overnight.
Table 1 summarizes the results of the in vitro binding studies using these three radioligands at the NMDA receptor site, μ-site and σ-site of opioid receptor, respectively.

Data set [2] concerns σ-site of opioid receptor. The note with it: shown previously; cited from earlier work.

T1 sequence (Q60492 whole entry): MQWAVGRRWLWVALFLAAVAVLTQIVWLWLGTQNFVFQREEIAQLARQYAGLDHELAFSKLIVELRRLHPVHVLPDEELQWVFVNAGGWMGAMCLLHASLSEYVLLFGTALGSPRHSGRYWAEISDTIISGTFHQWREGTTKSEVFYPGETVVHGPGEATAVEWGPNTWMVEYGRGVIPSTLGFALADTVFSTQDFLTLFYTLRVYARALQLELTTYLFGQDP

As to `CN[C@H](CC(=O)O)C(=O)O` [NMDA, N-methyl-D-aspartate], the mice died entry with mice is given as “approximately 90%”. Regarding `CCCN1CCCC(c2cccc(O)c2)C1` (stereo not drawn) [PPP, reference compound], in data set [1], the Kd turned out to be 20 nM. The “high-affinity ligand at the σ site of the opioid receptor” value in data set [2] is “high-affinity”.
